Laboratory results taken from PubChem BioAssay (NCI).
Several values for one entry are separate records, joined by “and”; a condition that tells them apart may be missing. Equal values may be shown once.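 Five concentrations, 48 hours, 96-well plates. Abbreviation: GI50, concentration required for 50% inhibition of growth. At the TGI there is no net growth.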

Legend:
Assay in all cases: NCI-60 cell line screen, 48 h
A498 renal = test system: A498 renal
COLO 205 colon = test system: COLO 205 colon
DU-145 prostate = test system: DU-145 prostate
HOP-62 NSCLC = test system: HOP-62 NSCLC
M14 melanoma = test system: M14 melanoma
MALME-3M melanoma = test system: MALME-3M melanoma
MDA-MB-231 breast = test system: MDA-MB-231 breast
MDA-MB-435 = test system: MDA-MB-435
OVCAR-8 ovarian = test system: OVCAR-8 ovarian
UACC-257 melanoma = test system: UACC-257 melanoma

| SMILES | GI50 (A498 renal) | TGI (A498 renal) | GI50 (COLO 205 colon) | TGI (COLO 205 colon) | GI50 (DU-145 prostate) | TGI (DU-145 prostate) | GI50 (HOP-62 NSCLC) | TGI (HOP-62 NSCLC) | GI50 (M14 melanoma) | TGI (M14 melanoma) | GI50 (MALME-3M melanoma) | TGI (MALME-3M melanoma) | GI50 (MDA-MB-231 breast) | TGI (MDA-MB-231 breast) | GI50 (MDA-MB-435) | TGI (MDA-MB-435) | GI50 (OVCAR-8 ovarian) | TGI (OVCAR-8 ovarian) | GI50 (UACC-257 melanoma) | TGI (UACC-257 melanoma) |
| --- | --- | --- | --- | --- | --- | --- | --- | --- | --- | --- | --- | --- | --- | --- | --- | --- | --- | --- | --- | --- |
| COc1ccc(Br)cc1NC(=O)Nc1cccc2c1ccn2Cc1ccnc(N)c1 | 2.41 µM and 4.12 µM | 11.6 µM and > 10 µM | 6.48 µM and 4.48 µM | 18.2 µM and > 10 µM | 7.86 µM and > 10 µM | 37.9 µM and > 10 µM | 4.86 µM and > 10 µM | 11.1 µM and > 10 µM | 3.09 µM and 2.68 µM | 10.5 µM and > 10 µM | 12.1 µM and > 10 µM | 32 µM and > 10 µM | 3.93 µM and 3.01 µM | 10.6 µM and > 10 µM | 5.42 µM and 5.81 µM | 23.5 µM and > 10 µM | 5.94 µM and > 10 µM | 23.3 µM and > 10 µM | 9.81 µM and > 10 µM | 27.5 µM and > 10 µM |
| Cn1ncc(Cl)c1-c1cc(C(=O)N[C@H](CN)Cc2cccc(F)c2)sc1Cl | 0.126 µM and 0.104 µM | 0.705 µM and 0.779 µM | 0.546 µM and 1.25 µM | 1.84 µM and 5.21 µM | 2.28 µM and 5.86 µM | > 10 µM and 19.4 µM | 1.11 µM and 3.13 µM | > 10 µM and 16.6 µM | 1.1 µM and 2 µM | 3.14 µM and 6.49 µM | 1.08 µM and 0.969 µM | 2.61 µM and 2.99 µM | 2.25 µM and 2.4 µM | > 8.32 µM and 8.33 µM | 1.31 µM and 2.36 µM | > 5.99 µM and 12.7 µM | 3.82 µM and 8.34 µM | > 7.9 µM and 23.8 µM | 1.44 µM and 2.88 µM | 3.71 µM and 9.91 µM |
| Cc1ccc(CNc2ccc3nc(CCC4CCCCC4)[nH]c3c2)cc1 | 1.44 µM | 4.32 µM | 1.88 µM | 3.66 µM | 3.73 µM | > 100 µM | 2.08 µM | 4.83 µM | 1.91 µM | 3.9 µM | 1.74 µM | 4.07 µM | 1.68 µM | 3.33 µM | 2.09 µM | 4.85 µM | 3.21 µM | > 100 µM | 2.37 µM | 6.44 µM |
| COc1ccccc1C#Cc1ccccc1C#Cc1ccc(OCCCCCCOc2ccccc2C#Cc2ccccc2C#Cc2ccccc2OC)cc1 | > 100 µM | > 100 µM | > 100 µM | > 100 µM | > 100 µM | > 100 µM | > 100 µM | > 100 µM | > 100 µM | > 100 µM | > 100 µM | > 100 µM | > 100 µM | > 100 µM | > 100 µM | > 100 µM | > 100 µM | > 100 µM | > 100 µM | > 100 µM |
| O=c1cc(-c2ccc(F)cc2)[nH]c2ncccc12 | – | > 100 µM | – | 60.3 µM | – | > 100 µM | – | > 100 µM | – | > 100 µM | – | > 100 µM | – | > 100 µM | 12 µM | 33 µM | – | > 100 µM | – | > 100 µM |
| COc1cc2nc(N3CCCN(C)CC3)nc(NC3CCN(Cc4ccccc4)CC3)c2cc1OC | 0.904 µM | 7.66 µM | 1.84 µM | 3.51 µM | 2.86 µM | 9.38 µM | 3.23 µM | 10.6 µM | 1.76 µM | 3.22 µM | 1.87 µM | 3.37 µM | 1.68 µM | 4.75 µM | 1.74 µM | 3.22 µM | 3.26 µM | 11.8 µM | 1.74 µM | 3.36 µM |
| CN(C)CCNc1ccc2ncn3c4ccc(O)cc4c(=O)c1c23 | – | 8.04 µM | – | 9.32 µM | – | 10.8 µM | – | 5.35 µM | – | 8.47 µM | – | 14.4 µM | – | 5.44 µM | – | 14.7 µM | – | 7.76 µM | – | 19.7 µM |
| Cc1ccc2c(C(C[N+](=O)[O-])c3ccccc3)c(-c3ccccc3)[nH]c2c1 (stereo unspecified) | 24.9 µM | > 95 µM | 21.8 µM | > 95 µM | 34 µM | > 95 µM | 34.2 µM | > 95 µM | 16 µM | > 95 µM | 10.2 µM | > 95 µM | 35.9 µM | > 95 µM | 4.1 µM | 29.2 µM | 33 µM | > 95 µM | 29.3 µM | > 95 µM |
| COc1ccc(-c2ncnc3c2ncn3CC#CCCl)cc1 | 2.15 µM | 12.5 µM | 3.51 µM | 13.7 µM | 4.74 µM | 18.4 µM | 1.79 µM | 3.31 µM | 4.55 µM | 17.4 µM | 2.58 µM | 16 µM | 2.32 µM | 8.28 µM | 2.71 µM | 11.5 µM | 11.6 µM | > 100 µM | 5.74 µM | 21.8 µM |
| COC[C@H](NC(=O)c1cnc(C)s1)C(=O)N[C@@H](COC)C(=O)N[C@@H](Cc1ccccc1)C(=O)[C@@]1(C)CO1 | 45.3 µM | > 100 µM | 37.4 µM | > 100 µM | 37.1 µM | > 100 µM | 31.4 µM | > 95.4 µM | 24.3 µM | > 69.8 µM | 22 µM | 64 µM | 16.2 µM | 39 µM | 12.9 µM | 40 µM | > 93.2 µM | > 100 µM | 21.1 µM | > 70.8 µM |
| Cc1c(CN2CCN(C(=O)[C@H](C)O)CC2)sc2c(N3CCOCC3)nc(-c3cnc(N)nc3)nc12 | 0.0542 µM and 0.0283 µM | 0.242 µM and 0.15 µM | 0.224 µM and 0.233 µM | > 5.47 µM and 9.5 µM | 0.424 µM and 0.244 µM | > 100 µM | 0.548 µM and 0.182 µM | > 7.07 µM and 3.85 µM | 0.326 µM and 0.0936 µM | > 9.28 µM and 1.44 µM | 0.0506 µM | 0.847 µM and 0.414 µM | 0.515 µM and 0.384 µM | > 40.6 µM | 0.285 µM and 0.186 µM | 3.16 µM and 1.38 µM | 0.631 µM and 0.26 µM | > 10 µM and 2.34 µM | 0.31 µM and 0.132 µM | 3.76 µM and 0.751 µM |
